Earlier results, collected in patent publication US20060009642A1, “Methods for the synthesis of substituted purines” (IRM LLC, a Delaware Limited Liability Company, priority 2001, published 2006).

System: cyclin-dependent kinase 1 (CDK1)
Conditions: binds to the ATP-binding site; Arris et al., J. Med. Chem. 43, 2797 (2000)

- inhibition of CDK1, mode of inhibition: competitive inhibitor
Compound: Nc1nc(OCC2CCCCC2)c2[nH]cnc2n1 [O6-cyclohexylmethylguanine]
